Measured values taken from patent US20130302442A1, “METHODS OF USING (4S,4AS,5AR,12AS)-4-DIMETHYLAMINO-3,10,12,12A-TETRAHYDROXY-7-[(METHOXY(METHYL)AMINO)-METHYL]-1,11-DIOXO-1,4,4A,5,5A,6,11,12A-OCTAHYDRO-NAPHTHACENE-2-CARBOXYLIC ACID AMIDE” (priority 2012, published 2013).
Converted amounts (≈) assume the structure as drawn. Like-named read-outs stand apart in the source and are kept apart here.

What was measured:
[1] = tested on: Streptococcus constellatus; assay: In vitro MIC testing against anaerobic bacteria; assay type: cell-based
[2] = tested on: Eikenella corrodens; assay: In vitro MIC testing against anaerobic bacteria; assay type: cell-based; conditions: ATCC43278; Eikenella corrodens 1206, ATCC 43278; read-out: MIC
[3] = tested on: Porphyromonas asaccharolytica; assay: In vitro MIC testing against anaerobic bacteria; assay type: cell-based
[4] = tested on: P. acnes; assay: In vitro MIC testing, antibacterial spectrum of activity; assay type: cell-based, Propionibacterium acnes; conditions: for MIC50: read-out: MIC50; for MIC90: read-out: MIC90
[5] = tested on: P. avidum; assay: as above; assay type: cell-based; conditions: P. avidum [clinical isolates] (4 isolates)
[6] = tested on: S. aureus; assay: as above; assay type: cell-based, Staphylococcus aureus; conditions: for MIC50 / MIC90 / MIC: Staphylococcus aureus; for MIC50: read-out: MIC50; for MIC90: read-out: MIC90
[7] = tested on: S. epidermidis; assay: as above; assay type: cell-based, Staphylococcus epidermidis; conditions: for MIC50 / MIC90: Staphylococcus epidermidis; for MIC50: read-out: MIC50; for MIC90: read-out: MIC90
[8] = tested on: E. faecalis; assay: as above; assay type: cell-based
[9] = tested on: E. cloacae; assay: as above; assay type: cell-based; conditions: Enterobacter cloacae; E. cloacae (30 isolates)
[10] = tested on: Salmonella Spp.; assay: as above; assay type: cell-based; conditions: Salmonella
[11] = tested on: Chlamydia trachomatis; assay: In vitro susceptibility testing of Chlamydia trachomatis in HEp-2 cells (first study); assay type: cell-based; conditions: C. trachomatis strains
[12] = tested on: Helicobacter pylori; assay: In vitro MIC against multiple isolates of H. pylori; assay type: cell-based; conditions: for MIC: read-out: MIC
[13] = tested on: methicillin-sensitive S. aureus (MSSA); assay: In vitro MIC against isolates of MSSA; assay type: cell-based, Staphylococcus aureus
[14] = tested on: hospital-associated methicillin-resistant S. aureus (MRSA-HA); assay: In vitro MIC against isolates of MRSA-HA; assay type: cell-based, Staphylococcus aureus; conditions: MRSA-HA (33 isolates)
[15] = tested on: community-acquired methicillin-resistant S. aureus (MRSA-CA); assay: In vitro MIC against isolates of MRSA-CA; assay type: cell-based, Staphylococcus aureus
[16] = tested on: Chlamydia trachomatis; assay: Susceptibility testing (MIC, MBC) of 10 isolates of C. trachomatis in HEp-2 cells; assay type: cell-based
[17] = tested on: Chlamydia pneumoniae; assay: Susceptibility testing (MIC, MBC) of 10 isolates of C. pneumoniae in HEp-2 cells; assay type: cell-based
[18] = tested on: bacterial protein synthesis (synthesis of reporter protein); assay: In vitro cell-free bacterial transcription and translation assay; assay type: biochemical; conditions: cell-free bacterial transcription and translation assay (Promega); read-out: IC50, inhibition of the synthesis of reporter protein
[19] = tested on: Staphylococcus aureus; assay: Inhibition of macromolecular synthesis in Staphylococcus aureus (whole-cell assay); assay type: cell-based; conditions: S. aureus, at 8-fold the MIC
[20] = Cutibacterium acnes, P. acnes [clinical isolates] (55 isolates)
[21] = Cutibacterium acnes, P. acnes [tetS] (13 isolates)
[22] = MRSA, S. aureus [MRSA] (31 isolates)
[23] = MSSA, S. aureus [MSSA] (32 isolates)
[24] = S. epidermidis [MRSE] (32 isolates)
[25] = S. epidermidis [MSSE] (31 isolates)
[26] = Staphylococcus aureus, MRSA-CA (33 isolates)

SMILES: CON(C)Cc1ccc(O)c2c1C[C@H]1C[C@H]3[C@H](N(C)C)C(O)=C(C(N)=O)C(=O)[C@@]3(O)C(O)=C1C2=O [The Active, (4S,4aS,5aR,12aS)-4-dimethylamino-3,10,12,12a-tetrahydroxy-7-[(methoxy(methyl)amino)-methyl]-1,11-dioxo-1,4,4a,5,5a,6,11,12a-octahydro-naphthacene-2-carboxylic acid amide]
- MIC ([1]; ATCC27823, Streptococcus constellatus 1202, ATCC 27823, read-out: MIC): 32 µg/mL (≈ 65.6 µM)
- MIC ([1]; Streptococcus constellatus, S. constellatus, summary of Table 1, read-out: MIC, high MIC values): > 16 µg/mL
- MIC [2]: 1 µg/mL (≈ 2.05 µM)
- MIC [3]: 16 µg/mL (≈ 32.8 µM)
- MIC ([3]; Porphyromonas asaccharolytica 3557, read-out: MIC): 8 µg/mL (≈ 16.4 µM)
- MIC ([4]; Cutibacterium acnes): > 8 µg/mL
- MIC50 [4, 20]: 0.5 µg/mL (≈ 1.03 µM)
- MIC90 [4, 20]: 4 µg/mL (≈ 8.2 µM)
- MIC50 [4, 21]: 0.5 µg/mL (≈ 1.03 µM)
- MIC90 [4, 21]: 2 µg/mL (≈ 4.1 µM)
- MIC Range ([4]; P. acnes [clinical isolates] (55 isolates)): 0.5 to 16 µg/mL
- MIC Range ([4]; P. acnes [tetS] (2 isolates)): 0.25 to 1 µg/mL
- MIC Range ([4]; P. acnes [tetS] (13 isolates)): 0.25 to 4 µg/mL
- MIC Range [5]: 1 to 4 µg/mL
- MIC Range ([6]; S. aureus [MRSA] (31 isolates)): 0.25 to 4 µg/mL
- MIC Range ([6]; S. aureus [MSSA] (32 isolates)): 0.25 to 16 µg/mL
- MIC Range ([6]; S. aureus [tetR] (10 isolates)): 0.125 to 32 µg/mL
- MIC Range ([6]; S. aureus [tetS] (20 isolates)): ≦0.06-0.25 μg/mL
- MIC50 [6, 22]: 0.25 µg/mL (≈ 0.513 µM)
- MIC90 [6, 22]: 0.5 µg/mL (≈ 1.03 µM)
- MIC50 [6, 23]: 0.5 µg/mL (≈ 1.03 µM)
- MIC90 [6, 23]: 0.5 µg/mL (≈ 1.03 µM)
- MIC50 ([6]; S. aureus [tetR] (10 isolates)): 4 µg/mL (≈ 8.2 µM)
- MIC90 ([6]; S. aureus [tetR] (10 isolates)): 16 µg/mL (≈ 32.8 µM)
- MIC50 ([6]; S. aureus [tetS] (20 isolates)): 0.125 µg/mL (≈ 0.256 µM)
- MIC90 ([6]; S. aureus [tetS] (20 isolates)): 0.25 µg/mL (≈ 0.513 µM)
- MIC ([6]; S. aureus strain PBS # 1309, tetK): 0.5 µg/mL (≈ 1.03 µM)
- MIC ([6]; S. aureus strain PBS # 1310, tetM): 8 µg/mL (≈ 16.4 µM)
- MIC ([6]; S. aureus strain PBS # 1739, tet38): 4 µg/mL (≈ 8.2 µM)
- MIC Range [7, 24]: 0.25 to 2 µg/mL
- MIC Range [7, 25]: 0.12 to 2 µg/mL
- MIC50 [7, 24]: 0.5 µg/mL (≈ 1.03 µM)
- MIC90 [7, 24]: 2 µg/mL (≈ 4.1 µM)
- MIC50 [7, 25]: 0.25 µg/mL (≈ 0.513 µM)
- MIC90 [7, 25]: 2 µg/mL (≈ 4.1 µM)
- MIC Range ([8]; E. faecalis [VSE] (31 isolates)): 0.25 to 32 µg/mL
- MIC Range ([8]; E. faecalis [tetR] (6 isolates)): 8 to 32 µg/mL
- MIC ([8]; Enterococcus faecalis, E. faecalis strain PBS # 274, tetL): 32 µg/mL (≈ 65.6 µM)
- MIC ([8]; Enterococcus faecalis, E. faecalis strain PBS # 276, tetM): 16 µg/mL (≈ 32.8 µM)
- MIC ([8]; Enterococcus faecalis, E. faecalis strain PBS # 949, tetS): 8 µg/mL (≈ 16.4 µM)
- MIC50 ([8]; Enterococcus faecalis, E. faecalis [VSE] (31 isolates), read-out: MIC50): 32 µg/mL (≈ 65.6 µM)
- MIC90 ([8]; Enterococcus faecalis, E. faecalis [VSE] (31 isolates), read-out: MIC90): 32 µg/mL (≈ 65.6 µM)
- MIC50 [9]: 32 µg/mL (≈ 65.6 µM)
- MIC90 [9]: > 64 µg/mL
- MIC90 [10]: > 64 µg/mL
- MIC Range [11]: 0.06 to 0.125 µg/mL
- MIC90 ([11]; Chlamydia trachomatis, read-out: MIC at which 90% of the strains were inhibited (MIC90)): 0.125 µg/mL (≈ 0.256 µM)
- MBC ([11]; Chlamydia trachomatis, read-out: minimum bactericidal concentration at which 90% of the strains were inhibited (MBC90)): 0.125 µg/mL (≈ 0.256 µM)
- MIC Range ([12]; H. pylori clinical isolate summary): 1 to 8 µg/mL
- concentration inhibiting 12 out of 13 strains ([12]; H. pylori, 12 out of 13 strains): 1 to 2 µg/mL
- concentration inhibiting all test strains ([12]; H. pylori, all 13 test strains): ≤ 8 µg/mL
- MIC ([12]; Helicobacter pylori, ATCC43504, H. pylori reference strain, culture No. 3718, ATCC 43504): 2 µg/mL (≈ 4.1 µM)
- MIC ([12]; Helicobacter pylori, ATCC700824, H. pylori reference strain, culture No. 3719, ATCC 700824): 2 µg/mL (≈ 4.1 µM)
- MIC ([12]; Helicobacter pylori, ATCCBAA945, H. pylori reference strain, culture No. 3720, ATCC BAA-945): 1 µg/mL (≈ 2.05 µM)
- MIC ([12]; Helicobacter pylori, H. pylori clinical isolate, culture No. 4368): 2 µg/mL (≈ 4.1 µM)
- MIC ([12]; Helicobacter pylori, H. pylori clinical isolate, culture No. 4369): 8 µg/mL (≈ 16.4 µM)
- MIC ([12]; Helicobacter pylori, H. pylori clinical isolate, culture No. 4370): 2 µg/mL (≈ 4.1 µM)
- MIC ([12]; Helicobacter pylori, H. pylori clinical isolate, culture No. 4371): 2 µg/mL (≈ 4.1 µM)
- MIC ([12]; Helicobacter pylori, H. pylori clinical isolate, culture No. 4372): 1 µg/mL (≈ 2.05 µM)
- MIC ([12]; Helicobacter pylori, H. pylori clinical isolate, culture No. 4374): 2 µg/mL (≈ 4.1 µM)
- MIC ([12]; Helicobacter pylori, H. pylori clinical isolate, culture No. 4375): 2 µg/mL (≈ 4.1 µM)
- MIC ([12]; Helicobacter pylori, H. pylori clinical isolate, culture No. 4377): 1 µg/mL (≈ 2.05 µM)
- MIC ([12]; Helicobacter pylori, H. pylori clinical isolate, culture No. 4503): 2 µg/mL (≈ 4.1 µM)
- MIC ([12]; Helicobacter pylori, H. pylori clinical isolate, culture No. 4504): 1 µg/mL (≈ 2.05 µM)
- MIC90 ([12]; Helicobacter pylori, H. pylori, MIC for 90% of clinical test isolates, read-out: MIC90): 2 µg/mL (≈ 4.1 µM)
- MIC50 ([12]; Helicobacter pylori, read-out: MIC50): 2 µg/mL (≈ 4.1 µM)
- MIC90 ([13]; MSSA (34 isolates)): 1.0 µg/mL (≈ 2.05 µM)
- MIC Range ([13]; MSSA (34 isolates)): 0.25 to 16 µg/mL
- MIC50 ([13]; Staphylococcus aureus, MSSA (34 isolates)): 0.25 µg/mL (≈ 0.513 µM)
- MIC90 ([13]; Staphylococcus aureus, MSSA (34 isolates), read-out: MIC90): 1 µg/mL (≈ 2.05 µM)
- MIC ([13]; Staphylococcus aureus, single strain of doxycycline-resistant MSSA): 16 µg/mL (≈ 32.8 µM)
- MIC Range [14]: 0.25 to 0.5 µg/mL
- MIC50 ([14]; Staphylococcus aureus): 0.25 µg/mL (≈ 0.513 µM)
- MIC90 ([14]; Staphylococcus aureus): 0.5 µg/mL (≈ 1.03 µM)
- MIC Range ([15]; MRSA-CA (33 isolates)): 0.12 to 8 µg/mL
- MIC50 [15, 26]: 0.25 µg/mL (≈ 0.513 µM)
- MIC90 [15, 26]: 0.5 µg/mL (≈ 1.03 µM)
- MIC ([15]; Staphylococcus aureus, single strain of doxycycline-resistant MRSA-CA): 8 µg/mL (≈ 16.4 µM)
- MIC 90% ([16]; 72 h): 0.125 µg/mL (≈ 0.256 µM)
- MIC Range ([16]; 72 h): 0.03 to 0.125 µg/mL
- MIC50 ([16]; Chlamydia trachomatis, 72 h): 0.06 µg/mL (≈ 0.123 µM)
- MIC90 ([16]; Chlamydia trachomatis, 72 h): 0.125 µg/mL (≈ 0.256 µM)
- MBC ([16]; Chlamydia trachomatis, after passage, read-out: MBC 90%): 0.125 µg/mL (≈ 0.256 µM)
- MBC 90% ([16]; after passage): 0.125 µg/mL (≈ 0.256 µM)
- MBC Range ([16]; after passage): 0.03 to 0.125 µg/mL
- MIC 90% ([17]; 72 h): 0.5 µg/mL (≈ 1.03 µM)
- MIC Range ([17]; 72 h): 0.125 to 0.5 µg/mL
- MIC50 ([17]; Chlamydia pneumoniae, 72 h): 0.25 µg/mL (≈ 0.513 µM)
- MIC90 ([17]; Chlamydia pneumoniae, 72 h): 0.5 µg/mL (≈ 1.03 µM)
- MBC ([17]; Chlamydia pneumoniae, after passage, read-out: MBC 90%): 0.25 µg/mL (≈ 0.513 µM)
- MBC 90% ([17]; after passage): 0.25 µg/mL (≈ 0.513 µM)
- MBC Range ([17]; after passage): 0.125 to 0.5 µg/mL
- IC50 [18]: 8.3 ± 0.18 µM
- inhibition of the synthesis of cell wall, DNA, RNA and lipid components [19]: less than 20%
- maximum inhibition of incorporation of [3H]-leucine into proteins [19]: 80%
